Laboratory results from patent US11168095B2, “ASK1 inhibiting agents” (BIOGEN MA INC., priority 2017, dated 2021).
Like-named read-outs stand apart in the source and are kept apart here.

Tests used:
[1] = biological target: ASK1/MAP3K5 (Homo sapiens (Human), UniProt Q99683); assay: ASK1/MAP3K5 assay by Reaction Biology Corp.; format: biochemical
Description: ASK1/MAP3K5 was used as the protein kinase and 20 μM of myelin basic protein (MBP) and 10 μM ATP were used as the substrate.

[2] = biological target: ASK1 T838 auto phosphorylation in HEK-293T cells (Homo sapiens (Human), UniProt Q99683); assay: ASK1 (AUTO PHOS T838) assay, MSD format; format: cell-based; settings: HEK 293T cells transfected with ASK1-V5 full length plasmid, compounds 1 hr at 37° C.; read-out: IC50
Chain of ASK1 T838 auto phosphorylation in HEK-293T cells (Q99683 whole entry): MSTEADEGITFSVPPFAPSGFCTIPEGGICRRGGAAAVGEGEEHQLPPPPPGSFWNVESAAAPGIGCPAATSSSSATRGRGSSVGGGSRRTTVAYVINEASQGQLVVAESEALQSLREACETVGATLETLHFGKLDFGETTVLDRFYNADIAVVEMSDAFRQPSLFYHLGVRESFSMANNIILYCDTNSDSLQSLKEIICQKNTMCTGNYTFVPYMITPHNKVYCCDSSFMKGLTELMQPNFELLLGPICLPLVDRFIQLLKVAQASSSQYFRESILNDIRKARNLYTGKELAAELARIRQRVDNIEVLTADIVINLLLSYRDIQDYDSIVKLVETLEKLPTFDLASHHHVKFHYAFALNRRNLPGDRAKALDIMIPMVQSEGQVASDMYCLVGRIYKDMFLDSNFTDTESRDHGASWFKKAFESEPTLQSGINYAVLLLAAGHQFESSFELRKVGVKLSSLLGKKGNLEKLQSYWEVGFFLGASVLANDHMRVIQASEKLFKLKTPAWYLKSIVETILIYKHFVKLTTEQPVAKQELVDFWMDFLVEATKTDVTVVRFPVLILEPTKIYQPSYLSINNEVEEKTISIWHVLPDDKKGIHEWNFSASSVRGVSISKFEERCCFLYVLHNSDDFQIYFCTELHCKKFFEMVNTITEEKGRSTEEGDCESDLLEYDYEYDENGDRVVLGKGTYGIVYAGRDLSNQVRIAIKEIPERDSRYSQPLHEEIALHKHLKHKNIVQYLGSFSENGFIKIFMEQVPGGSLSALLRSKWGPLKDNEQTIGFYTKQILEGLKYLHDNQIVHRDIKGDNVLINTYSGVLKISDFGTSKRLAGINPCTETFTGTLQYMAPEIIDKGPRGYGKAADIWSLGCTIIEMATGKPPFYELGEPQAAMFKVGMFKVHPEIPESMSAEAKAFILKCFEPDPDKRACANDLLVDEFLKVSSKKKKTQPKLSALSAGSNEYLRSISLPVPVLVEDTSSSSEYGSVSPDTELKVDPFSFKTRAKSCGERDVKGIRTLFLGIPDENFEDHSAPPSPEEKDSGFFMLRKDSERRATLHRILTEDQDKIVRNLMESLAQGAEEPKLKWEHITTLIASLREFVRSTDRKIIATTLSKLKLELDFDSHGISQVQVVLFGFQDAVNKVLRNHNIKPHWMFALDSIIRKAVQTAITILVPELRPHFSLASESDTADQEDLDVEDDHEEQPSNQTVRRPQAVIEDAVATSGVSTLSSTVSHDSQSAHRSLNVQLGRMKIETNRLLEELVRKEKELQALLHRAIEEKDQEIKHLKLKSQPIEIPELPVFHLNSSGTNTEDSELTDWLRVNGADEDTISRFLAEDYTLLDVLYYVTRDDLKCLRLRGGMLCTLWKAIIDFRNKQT

[3] = 20 μM myelin basic protein (MBP), 10 μM ATP

Chain of ASK1/MAP3K5 (Q99683 whole entry): as above

IC50 [1, 3] [µM] | IC50 [2] [µM] | Compound | IC50 [1] [µM]
< 0.1 | < 1 | COCCNc1cc2c(cc1F)C(=O)Nc1cccc(n1)-c1nncn1CCCCO2 [Example 88, 5^5-Fluoro-5^4-((2-methoxyethyl)amino)-1^4H-6-oxa-3-aza-2(2,6)-pyridina-1(3,4)-triazola-5(1,2)-benzenacyclodecaphan-4-one] | –
< 0.1 | < 1 | COC(C)(C)c1ccc2c(c1)C(=O)Nc1cccc(n1)-c1nncn1CCCCO2 [Example 50, 5^5-(2-Methoxypropan-2-yl)-1^4H-6-oxa-3-aza-2(2,6)-pyridina-1(3,4)-triazola-5(1,2)-benzenacyclodecaphan-4-one] | –
< 0.1 | < 1 | C[C@H]1CCCOc2cc(F)c(Br)cc2C(=O)Nc2cccc(n2)-c2nncn21 [Example 101, (S)-5^5-Bromo-5^4-fluoro-10-methyl-1^4H-6-oxa-3-aza-2(2,6)-pyridina-1(3,4)-triazola-5(1,2)-benzenacyclodecaphan-4-one] | –
< 0.1 | < 1 | COCCOc1cc2c(cc1F)OCCC[C@H](C)n1cnnc1-c1cccc(n1)NC2=O [Example 117, (S)-5^4-Fluoro-5^5-(2-methoxyethoxy)-10-methyl-1^4H-6-oxa-3-aza-2(2,6)-pyridina-1(3,4)-triazola-5(1,2)-benzenacyclodecaphan-4-one] | –
< 0.1 | < 1 | C[C@H]1CCCOc2cc(F)c(-c3cnn(C)c3)cc2C(=O)Nc2cccc(n2)-c2nncn21 [Example 114, (S)-5^4-Fluoro-10-methyl-5^5-(1-methyl-1H-pyrazol-4-yl)-1^4H-6-oxa-3-aza-2(2,6)-pyridina-1(3,4)-triazola-5(1,2)-benzenacyclodecaphan-4-one] | –
< 0.1 | < 1 | C[C@H]1CCCOc2cc(F)c(C3=CCOCC3)cc2C(=O)Nc2cccc(n2)-c2nncn21 [Example 108, (S)-5^5-(3,6-Dihydro-2H-pyran-4-yl)-5^4-fluoro-10-methyl-1^4H-6-oxa-3-aza-2(2,6)-pyridina-1(3,4)-triazola-5(1,2)-benzenacyclodecaphan-4-one] | –
< 0.1 | < 1 | C[C@H]1CCCn2cnnc2-c2cccc(n2)NC(=O)c2cc(N3CCN(C)CC3)ccc2O1 [Example 140, (S)-7-Methyl-5^5-(4-methylpiperazin-1-yl)-1^4H-6-oxa-3-aza-2(2,6)-pyridina-1(3,4)-triazola-5(1,2)-benzenacyclodecaphan-4-one] | –
< 0.1 | < 1 | O=C1Nc2cccc(n2)-c2nncn2CCCCOc2cc(F)c(-c3cncc(C(F)(F)F)c3)cc21 [Example 58, 5^4-Fluoro-5^5-(5-(trifluoromethyl)pyridin-3-yl)-1^4H-6-oxa-3-aza-2(2,6)-pyridina-1(3,4)-triazola-5(1,2)-benzenacyclodecaphan-4-one] | –
< 0.1 | < 1 | O=C1Nc2cccc(n2)-c2nncn2CCCCOc2cc(N3CCOCC3)c(F)cc21 [Example 87, 5^5-Fluoro-5^4-morpholino-1^4H-6-oxa-3-aza-2(2,6)-pyridina-1(3,4)-triazola-5(1,2)-benzenacyclodecaphan-4-one] | –
< 0.1 | < 1 | CN1CCn2ncc(-c3ccc4c(c3)C(=O)Nc3cccc(n3)-c3nncn3CCCCO4)c2C1 [Example 40, 5^5-(5-Methyl-4,5,6,7-tetrahydropyrazolo[1,5-a]pyrazin-3-yl)-1^4H-6-oxa-3-aza-2(2,6)-pyridina-1(3,4)-triazola-5(1,2)-benzenacyclodecaphan-4-one] | –

Second part, the compound before the results:

Compound | IC50 [1, 3] [µM] | IC50 [2] [µM] | IC50 [1] [µM]
C[C@H]1CCCOc2cc(F)c(N3CC4CC(C3)O4)cc2C(=O)Nc2cccc(n2)-c2nncn21 [Example 104, (10S)-5^5-(6-Oxa-3-azabicyclo[3.1.1]heptan-3-yl)-5^4-fluoro-10-methyl-1^4H-6-oxa-3-aza-2(2,6)-pyridina-1(3,4)-triazola-5(1,2)-benzenacyclodecaphan-4-one] | < 0.1 | < 1 | –
Cc1cn(-c2cc3c(cc2F)OCCCCn2cnnc2-c2cccc(n2)NC3=O)cn1 [Example 66, 5^4-Fluoro-5^5-(4-methyl-1H-imidazol-1-yl)-1^4H-6-oxa-3-aza-2(2,6)-pyridina-1(3,4)-triazola-5(1,2)-benzenacyclodecaphan-4-one] | < 0.1 | < 1 | –
C[C@H]1CCCn2cnnc2-c2cccc(n2)NC(=O)c2cc(-c3cnn(CCN(C)C)c3)ccc2O1 [Example 146, (S)-5^5-(1-(2-(Dimethylamino)ethyl)-1H-pyrazol-4-yl)-7-methyl-1^4H-6-oxa-3-aza-2(2,6)-pyridina-1(3,4)-triazola-5(1,2)-benzenacyclodecaphan-4-one] | < 0.1 | < 1 | –
Cc1c(-c2ccc3c(c2)C(=O)Nc2cccc(n2)-c2nncn2CCCCO3)cnn1C [Example 37, 5^5-(1,5-Dimethyl-1H-pyrazol-4-yl)-1^4H-6-oxa-3-aza-2(2,6)-pyridina-1(3,4)-triazola-5(1,2)-benzenacyclodecaphan-4-one] | < 0.1 | < 1 | –
C[C@H]1CCCOc2cc(F)c(OCCN(C)C)cc2C(=O)Nc2cccc(n2)-c2nncn21 [Example 116, (S)-5^5-(2-(Dimethylamino)ethoxy)-5^4-fluoro-10-methyl-1^4H-6-oxa-3-aza-2(2,6)-pyridina-1(3,4)-triazola-5(1,2)-benzenacyclodecaphan-4-one] | – | < 1 | < 0.1
CN1CC=C(c2cc3c(cc2F)C(=O)Nc2cccc(n2)-c2nncn2CCCCO3)CC1 [Example 85, 5^5-Fluoro-5^4-(1-methyl-1,2,3,6-tetrahydropyridin-4-yl)-1^4H-6-oxa-3-aza-2(2,6)-pyridina-1(3,4)-triazola-5(1,2)-benzenacyclodecaphan-4-one] | < 0.1 | < 1 | –
(S)-5^4-Bromo-10-methyl-1^4H-6-oxa-3-aza-2(2,6)-pyridina-1(3,4)-triazola-5(1,2)-benzenacyclodecaphan-4-one [Example 120] | < 0.1 | < 1 | –
CN(C)Cc1ccc2c(c1)C(=O)Nc1cccc(n1)-c1nncn1CCCCO2 [Example 48, 5^5-((Dimethylamino)methyl)-1^4H-6-oxa-3-aza-2(2,6)-pyridina-1(3,4)-triazola-5(1,2)-benzenacyclodecaphan-4-one] | < 0.1 | < 1 | –
Cc1ccnn1-c1ccc2c(c1)C(=O)Nc1cccc(n1)-c1nncn1CCCCO2 [Example 45a, 5^5-(5-Methyl-1H-pyrazol-1-yl)-1^4H-6-oxa-3-aza-2(2,6)-pyridina-1(3,4)-triazola-5(1,2)-benzenacyclodecaphan-4-one] | 0.1 to 1 | 1 to 10 | –
(R)-5^4-Bromo-10-methyl-1^4H-6-oxa-3-aza-2(2,6)-pyridina-1(3,4)-triazola-5(1,2)-benzenacyclodecaphan-4-one [Example 121] | 1 to 10 | > 10 | –
C[C@H]1CCCn2cnnc2-c2cccc(n2)NC(=O)c2cc(-c3ccncc3)ccc2O1 [Example 144, (S)-7-Methyl-5^5-(pyridin-4-yl)-1^4H-6-oxa-3-aza-2(2,6)-pyridina-1(3,4)-triazola-5(1,2)-benzenacyclodecaphan-4-one] | < 0.1 | < 1 | –
O=C1Nc2cccc(n2)-c2nncn2C/C=C/CCOc2cc(F)c(Br)cc21 [Example 177, (Z)-5^5-Bromo-5^4-fluoro-1^4H-6-oxa-3-aza-2(2,6)-pyridina-1(3,4)-triazola-5(1,2)-benzenacycloundecaphan-9-en-4-one] | < 0.1 | 1 to 10 | –
